Like-named read-outs stand apart in the source and are kept apart here. No end group written: not given here.
Legend:
[1] = system: PC-3 cells; test: Annexin V/PI staining with FACS; assay type: cell-based, human; settings: N=4
Method: Cells were seeded in a six-well plate and treated through various treatments to modulate MCL1 or p73 expression as they were in previous experiments. After the 24 or 48 h treatment, cells were collected through trypsin dissociation and washed twice with sterile DPBS. Cell number was counted on a BioRad Automated Cell Counter. After final wash, cells were pelleted at 1000×g for 10 min. The cell pellet was resuspended in 1× Annexin V binding buffer (BD Pharmingen, 556454) and 5 × 10^5 cells were transferred to a FACS tube containing 5 μL propidium iodide (PI) staining solution (BD Pharmingen, 51-66211E) and 5 μL FITC-Annexin V (BD Pharmingen, 556419). Cells were incubated for 15 min in the dark. FACS was collected on a BD LSRFortessa and analyzed using FlowJo v10. Compensation controls used for analysis include unstained cells and cells stained for each individual fluorophore (FITC-Annexin V and Cy5-PI). Gating strategy eliminated cell debris and doublets through forward and side scatter plots.
Supplemental Fig 3. […] Cells were stained with Annexin V and Propidium Iodide (PI) to determine the apoptotic cell population. […] All plots shown here are representative plots of the data set, N=4.

[2] = target: T1, recombinant MCL1 (Homo sapiens, UniProt Q07820); test: Competitive fluorescence polarization assay (FPA), MCL1 with F-BAK probe; assay type: binding
T1 construct: made in house; host or cells: E. coli BL21 (DE3)
T1 sequence (Q07820 whole entry): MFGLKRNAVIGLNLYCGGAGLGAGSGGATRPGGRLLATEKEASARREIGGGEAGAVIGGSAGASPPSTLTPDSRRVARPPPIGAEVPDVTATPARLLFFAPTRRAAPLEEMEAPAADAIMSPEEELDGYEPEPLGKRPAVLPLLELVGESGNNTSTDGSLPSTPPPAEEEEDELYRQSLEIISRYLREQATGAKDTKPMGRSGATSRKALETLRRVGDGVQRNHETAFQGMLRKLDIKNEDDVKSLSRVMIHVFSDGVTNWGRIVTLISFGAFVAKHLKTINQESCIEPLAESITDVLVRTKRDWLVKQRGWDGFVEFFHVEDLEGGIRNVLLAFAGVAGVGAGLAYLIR
Description: (§1) We next sought to determine which core domain, the DBD or the TD, of p73 mediates binding to MCL1. […] Therefore, we expressed and purified recombinant p73DBD and tested its ability to associate with MCL1 using competitive fluorescence polarization assay (FPA) analysis and NMR chemical shift perturbation (CSP) studies (Fig. 2a, Supplementary Fig. 1). FPA is a biochemical assay that can either determine the binding constant between a recombinant protein and a fluorescently labeled small molecule or peptide (i.e. direct FPA as a measure of KD) or it can determine the concentration in which an unknown binding partner can compete with bound fluorescently labeled ligand (competitive FPA as a measure of IC50).
In a flat-bottom, untreated black 96-well microplate (ThermoScientific), 80 μL recombinant protein is incubated with 10 μL 10× unlabeled peptide or small molecule inhibitor shaking at 300 rpm for 20 min to allow for binding. Once complete, 10 μL of 10× FITC-peptide is added per well. The plate is covered with an opaque lid to shake for an additional 40 min. After 1 h incubation is complete, the plate is read using the FP-Fluorescein setting (1.0 s, CW lamp filter—F485, emission filter, F535) on a Perkin Elmer Victor X5 plate reader. The buffer used for all assays is 1× PBS, pH 7.4. All experiments were completed in technical and biological triplicate. All data plotted in Fig. 2 is one representative assay in technical triplicate.

[3] = system: PC-3 cells; test: TaqMan RT-qPCR of p73 target genes in PC-3; assay type: cell-based, human; settings: normalized to GAPDH, biological and technical triplicate
Method: All RT-qPCR reactions were performed in biological triplicate. A master mix for each target or housekeeping gene was made with 15 μL RNAse-free water, 3 μL 20× RT-qPCR Primer Mix (ThermoScientific), 12 μL 25 ng/μL cDNA, and 30 μL TaqMan Universal Master Mix II, with UNG (Applied Biosystems, 2020-02-29). The mix was aliquoted out 20 μL/well in technical triplicate with the final concentration of cDNA at 100 ng/reaction. PCR reactions were performed on an Applied Biosystems ViiA 7 Real-Time PCR System for 40 cycles starting at 25 °C. Each cycle is 50 °C for 2 min, 95 °C for 10 min, and 15 s, and 60 °C for 1 min. Temperature shifts at 1.6 °C/s. All data are collected and analyzed using Applied Biosystems QuantStudio Real-Time PCR Software. All target genes analyzed were normalized to GAPDH. All primers had FAM-MGB probes. All TaqMan primers were ordered from ThermoFisher Scientific with the target gene and Assay ID included: CDKN2A/p21 (Hs00355782_m1), PMAIP1/NOXA (Hs00560402_m1), GADD45A (Hs00169255_m1), BBC3/PUMA (Hs00248075_m1), GAPDH (Hs02758991_g1).
Four known p73 target genes were analyzed by TaqMan RT-qPCR. After a baseline was established, cells were treated with b an siRNA targeting MCL1 or c 2 μM MCL1 inhibitor A1210477. […] All experiments were performed in biological and technical triplicate. Bar graphs shown with SEM of one representative assay. […]

[4] = system: H1299 cells; test: TaqMan RT-qPCR of p73 target genes in H1299; assay type: cell-based, human; settings: 24 h, normalized to GAPDH, biological and technical triplicate
Method: Four known p73 target genes were analyzed by TaqMan RT-qPCR. After a baseline was established, H1299 cells were treated with b an siRNA targeting MCL1 (48 h) or c 2 μM MCL1 inhibitor A1210477 (24 h). […] All experiments were performed in biological and technical triplicate. Bar graphs shown with SEM of one representative assay. A Student’s t-test was applied to each target gene for each treatment for statistical analysis, p-values: *p < 0.05, **p < 0.01, ***p < 0.001, ****p < 0.0001.
RNA was purified from human cancer cell lines for RT-qPCR with the SurePrep TrueTotal RNA Purification Kit (Fisher BioReagents, BP2800-50) by the manufacturer’s protocol. The final concentration of purified RNA was measured using a Nanodrop 2000c spectrophotometer. Once RNA concentration was determined, a single step cDNA synthesis reaction was made in TempAssure PCR 8-Tube Strips (USA Scientific, 1402-2500) in technical duplicate as follows: 100 ng RNA, 16 μL nuclease-free water (Ambion, 1512103), and 4 μL qScript cDNA SuperMix (Quanta BioSciences Inc., 84034). […] Concentration was determined after the cDNA synthesis on the Nanodrop 2000c spectrophotometer. cDNA was diluted to 25 ng/μL into Molecular Biology Grade Water (Corning, 46-000-CM) and stored at −20 °C for future use. […]
All RT-qPCR reactions were performed in biological triplicate. […] All target genes analyzed were normalized to GAPDH. […]

[5] = system: PC-3 cells; test: Cellular fractionation and western blot after cisplatin; assay type: cell-based, human; settings: low dose (printed 5 mM), 24 hours, vs 0.5% DMF, western blot
Method: Cellular localization was performed using the NE-PER Nuclear and Cytoplasmic Extraction Reagent Kit (ThermoScientific, 78833) per the manufacturer’s protocol. The western blot quantification analysis was completed in the Image Lab 6.0.1 software using the Adjusted Volume tool. All assays were completed in biological triplicate with one representative image for each treatment group and/or cell line.
Cells were fractionated in cytosolic and nuclear compartments. Protein localization was analyzed through Western Blot analysis. Lamin A/C and GAPDH were used for fractionation controls. Band quantifications using the adjusted volume for each individual band are below for reference. All paired samples are normalized to the WCL treated with DMF alone.

[6] = target: T1, recombinant MCL1; test: Direct FPA of FITC-labeled peptides with MCL1; assay type: binding; settings: N-terminally FITC-labeled peptide with recombinant MCL1; 1x PBS pH 7.4; 30 min; at or approaching limit of detection of probe
Description: as §1
The buffer used for all assays is 1× PBS, pH 7.4. All experiments were completed in technical and biological triplicate.

[7] = system: 15N MCL1; test: 2D [15N,1H]-HSQC NMR chemical shift perturbation of 15N MCL1; assay type: binding, human; settings: 50 μM 15N MCL1 + 200 μM ligand; 1x PBS pH 6.8; significant CSP = >2SD above mean (0.046 ppm)
Method: Fig. 3 P73 binds to the BH3-binding groove of MCL1. a 2D [^15N, ^1H]-HSQC spectra of 50 μM ^15N MCL1 + 2% DMSO (black contours) or 50 μM ^15N MCL1 + 200 μM p73_23mer TD-derived peptide (red contours). Amino acids with significant CSP (Δδ > 0.046 ppm: G217, F228, N239, D241, D242, H252, I264, V265, L267, I268, E292, L298, V299, T301, D304, and H320) or residues that were unable to be identified in the bound spectra (V216, G219, V220, V243, […], S247, R263, G271, R303, K308, and F315) are labeled for reference. b CSP quantified as a function of Δδ ppm for each amino acid residue. The first dotted line indicates 1SD from the mean (0.023) and the solid line indicates 2SD from the mean (0.046). Amino acids with significant CSP were identified as >2SD above the mean (blue). Amino acids that were unable to be identified in the bound spectra were set to −0.01 to differentiate them from peaks with no CSP (red). […]
The NMR HSQC spectra were acquired using a Bruker 600 MHz magnet at the Central Alabama High Field NMR Facility. […] The resulting spectra were analyzed using Computer-Aided Resonance Assignment (CARA) and the peak lists were exported to Microsoft Excel for the CSP quantification and calculation of the mean and standard deviation. […]
Supplemental Fig 1. […] The two cut offs represent the 1 and 2 SD cut offs determined through the 50 µM 15N hMCL1 + 200 µM p7323mer spectra in Fig 2.

[8] = competitive FPA, 50 nM recombinant MCL1, 10 nM F-BAK, unlabeled peptide titration, 1x PBS pH 7.4, 20 min pre-incubation + 40 min, mean ± SD, biological and technical triplicate, read-out: FPA IC50

Molecule: Cc1nn(C)c(COc2ccc(N3CCN(S(=O)(=O)N(C)C)CC3)cc2)c1-c1cccc2c(CCCOc3cccc4ccccc34)c(C(=O)O)n(CCN3CCOCC3)c12 [A1210477]
- Apoptotic induction, Annexin V/PI ([1]; 2 μM, 24 hours, vs 0.5% DMSO): no increase in apoptotic induction
- IC50 [2]: 2590 nM
- p73 target gene expression (p21, NOXA, GADD45, PUMA) ([3]; 2 μM): significant increases in gene expression in at least three of the four p73 target genes
- p73 target gene expression (p21, NOXA, GADD45, PUMA) ([4]; 2 μM): significant increases in gene expression in at least three of the four p73 target genes

Molecule: N.N.[Cl][Pt][Cl] [cisplatin]
- Apoptosis, Annexin V/PI, positive control ([1]; 50 µM): significant increase in apoptosis
- MCL1 protein levels in cytoplasmic and nuclear fractions [5]: increase MCL1 levels in both the cytoplasmic and nuclear compartments
- p73 target gene expression (p21, NOXA, GADD45, PUMA) ([3]; 5 μM, 24 h): statistically significant increases in expression in at least three of the four p73 target genes
- p73 target gene expression (p21, NOXA, GADD45, PUMA) ([4]; 10 μM): statistically significant increases in expression in at least three of the four p73 target genes

Molecule: DEDTYYLQVR-NH2 [β1]
- IC50 [2, 8]: > 10000 nM

Molecule: GRENFEILMKLKESLELMELVPQ-NH2 [p73_23mer]
- Kd [6]: ≤ 5 nM
- IC50 ([2]; competitive FPA, 50 nM recombinant MCL1, 10 nM F-BAK, unlabeled peptide titration, 1x PBS pH 7.4, 20 min pre-incubation + 40 min, mean ± SD, biological and technical triplicate, SD, read-out: FPA IC50): 982 ± 195 nM

Molecule: VPQPLVDSYRQQQQLLQR-NH2 [α2]
- IC50 [2, 8]: > 10000 nM

Molecule: p73DBD: recombinant p73 DNA-binding domain alone, amino acids 112–311
- Association with MCL1 in competitive FPA ([2]; 50 nM recombinant MCL1, 10 nM F-BAK, titration of unlabeled protein): Neither NMR nor competitive FPA analysis exhibited significant changes
- Chemical shift perturbation of MCL1 [7]: No amino acids in this spectra exhibited significant shifts
